System: Bovine cardiac myofibrils
Test: In vitro model of dose-dependent myofibril ATPase modulation (AC1.4, pyruvate kinase/lactate dehydrogenase-coupled ATPase assay at pCa25)
Assay type: biochemical
Conditions: concentration at which ATPase activity was 1.4-fold higher than the bottom of the dose curve, mean of a minimum of two independent tests
Summary of the method: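 We measure calcium-buffered ATPase activity of detergent-skinned bovine cardiac myofibrils at pH 6.80 and 22° C with 1 mM ATP, using a PK/LDH-coupled NADH readout at 340 nm. Values come from four-parameter dose-response fits, averaged over at least two independent runs.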

| SMILES | AC1.4 |
| --- | --- |
| N#CC1CN(S(=O)(=O)N2CCC[C@H](C(=O)N3C[C@@H](F)C[C@@H]3C(=O)NCc3ccc(C(F)(F)F)cc3)C2)C1 [Example 56, (4S)-1-(((3S)-1-((3-cyano-1-azetidinyl)sulfonyl)-3-piperidinyl)carbonyl)-4-fluoro-N-(4-(trifluoromethyl)benzyl)-D-prolinamide] | 0.06215 µM |
| N#C[C@H]1C[C@@H](S(=O)(=O)N2CCC[C@H](C(=O)N3CCC[C@@H]3C(=O)NCc3ccc(C(F)(F)F)cc3)C2)C1 [Example 59, 1-(((3S)-1-((cis-3-cyanocyclobutyl)sulfonyl)-3-piperidinyl)carbonyl)-N-(4-(trifluoromethyl)benzyl)-D-prolinamide] | 0.06495 µM |
| Cc1cc(C(F)(F)F)ccc1CNC(=O)[C@H]1CCCN1C(=O)[C@H]1CCCN(S(=O)(=O)N2CC(C#N)C2)C1 [Example 60, 1-(((3S)-1-((3-cyano-1-azetidinyl)sulfonyl)-3-piperidinyl)carbonyl)-N-(2-methyl-4-(trifluoromethyl)benzyl)-D-prolinamide] | 0.0657 µM |
| CC(C)Nc1ccc(S(C)(=O)=O)cc1C(=O)N1[C@@H](C(=O)N[C@@H](c2ccc(C(F)(F)F)cc2F)C2CC2)C[C@H]2C[C@H]21 [Example 61, (1R,3R,5R)-N-((R)-cyclopropyl(2-fluoro-4-(trifluoromethyl)phenyl)methyl)-2-(5-(methylsulfonyl)-2-(2-propanylamino)benzoyl)-2-azabicyclo[3.1.0]hexane-3-carboxamide] | 0.0687 µM |
| N#CC1CN(S(=O)(=O)N2CCC[C@H](C(=O)N3CCC[C@@H]3C(=O)NCc3ccc(C(F)(F)F)cc3F)C2)C1 [Example 62, 1-(((3S)-1-((3-cyano-1-azetidinyl)sulfonyl)-3-piperidinyl)carbonyl)-N-(2-fluoro-4-(trifluoromethyl)benzyl)-D-prolinamide] | 0.07198 µM |
| N#CC1CN(S(=O)(=O)N2CCC[C@H](C(=O)N3CCC[C@@H]3C(=O)NCc3ccc(C(F)(F)F)cc3Cl)C2)C1 [Example 63, N-(2-chloro-4-(trifluoromethyl)benzyl)-1-(((3S)-1-((3-cyano-1-azetidinyl)sulfonyl)-3-piperidinyl)carbonyl)-D-prolinamide] | 0.07385 µM |
| N#CC1CN(S(=O)(=O)N2CCC[C@H](C(=O)N3CCCC[C@@H]3C(=O)NCc3ccc(C(F)(F)F)cc3)C2)C1 [Example 65, (2R)-1-(((3S)-1-((3-cyano-1-azetidinyl)sulfonyl)-3-piperidinyl)carbonyl)-N-(4-(trifluoromethyl)benzyl)-2-piperidinecarboxamide] | 0.0748 µM |
| CCS(=O)(=O)c1cccc(C(=O)N2[C@@H](C(=O)N[C@@H](c3cc(F)c(Cl)cc3F)C3COC3)C[C@H]3C[C@H]32)c1 [Example 66, (1R,3R,5R)-N-((R)-(4-chloro-2,5-difluorophenyl)(3-oxetanyl)methyl)-2-(3-(ethylsulfonyl)benzoyl)-2-azabicyclo[3.1.0]hexane-3-carboxamide] | 0.0766 µM |
| CS(=O)(=O)C1CN(S(=O)(=O)N2CCC[C@H](C(=O)N3CCC[C@@H]3C(=O)NCc3ccc(C(F)(F)F)cc3)C2)C1 [Example 72, 1-(((3S)-1-((3-(methylsulfonyl)-1-azetidinyl)sulfonyl)-3-piperidinyl)carbonyl)-N-(4-(trifluoromethyl)benzyl)-D-prolinamide] | 0.09025 µM |
| CCNc1ccc(S(C)(=O)=O)cc1C(=O)N1CCC[C@@H]1C(=O)N[C@@H](c1ccc(C(F)(F)F)cc1F)C1CC1 [Example 79, N-((R)-cyclopropyl(2-fluoro-4-(trifluoromethyl)phenyl)methyl)-1-(2-(ethylamino)-5-(methylsulfonyl)benzoyl)-D-prolinamide] | 0.104 µM |
| COC(=O)CS(=O)(=O)c1cccc(C(=O)N2[C@@H](C(=O)N[C@@H](c3cc(F)c(C(F)(F)F)cc3F)C3CC3)C[C@H]3C[C@H]32)c1 [Example 80, methyl((3-(((1R,3R,5R)-3-(((R)-cyclopropyl(2,5-difluoro-4-(trifluoromethyl)phenyl)methyl)carbamoyl)-2-azabicyclo[3.1.0]hexan-2-yl)carbonyl)phenyl)sulfonyl)acetate] | 0.1046 µM |
| CC(C)Nc1ccc(S(C)(=O)=O)cc1C(=O)N1CCC[C@@H]1C(=O)N[C@@H](c1ccc(C(F)(F)F)cc1F)C1CC1 [Example 81, N-((R)-cyclopropyl(2-fluoro-4-(trifluoromethyl)phenyl)methyl)-1-(5-(methylsulfonyl)-2-(2-propanylamino)benzoyl)-D-prolinamide] | 0.1048 µM |
| CS(=O)(=O)c1cc(F)cc(C(=O)N2[C@@H](C(=O)N[C@@H](c3cc(F)c(Cl)cc3F)C3COC3)C[C@H]3C[C@H]32)c1 [Example 83, (1R,3R,5R)-N-((R)-(4-chloro-2,5-difluorophenyl)(3-oxetanyl)methyl)-2-(3-fluoro-5-(methylsulfonyl)benzoyl)-2-azabicyclo[3.1.0]hexane-3-carboxamide] | 0.1146 µM |

Now from value to compound:

| AC1.4 | SMILES |
| --- | --- |
| 0.06485 µM | N#CC1CN(S(=O)(=O)c2cccc(C(=O)N3CCC[C@@H]3C(=O)N[C@H](CO)c3ccc(Cl)cc3)c2)C1 [Example 57, N-((1S)-1-(4-chlorophenyl)-2-hydroxyethyl)-1-(3-((3-cyano-1-azetidinyl)sulfonyl)benzoyl)-D-prolinamide] |
| 0.06485 µM | CN(C)S(=O)(=O)c1cccc(C(=O)N2CCC[C@@H]2C(=O)N[C@@H](c2ccc(C(F)(F)F)cc2F)C2CC2)c1 [Example 58, N-((R)-cyclopropyl(2-fluoro-4-(trifluoromethyl)phenyl)methyl)-1-(3-(dimethylsulfamoyl)benzoyl)-D-prolinamide] |
| 0.0744 µM | N#CC1CN(S(=O)(=O)c2cccc(C(=O)N3CCC[C@@H]3C(=O)NCc3ccc(Cl)c(F)c3)c2)C1 [Example 64, N-(4-chloro-3-fluorobenzyl)-1-((3-((3-cyano-1-azetidinyl)sulfonyl)phenyl)carbonyl)-D-prolinamide] |
| 0.0784 µM | CC(C)C[C@@H](NC(=O)[C@H]1CCCN1C(=O)[C@H]1CCCN(S(=O)(=O)N2CC(C#N)C2)C1)c1ccc(C(F)(F)F)cc1 [Example 68, 1-(((3S)-1-((3-cyano-1-azetidinyl)sulfonyl)-3-piperidinyl)carbonyl)-N-((1R)-3-methyl-1-(4-(trifluoromethyl)phenyl)butyl)-D-prolinamide] |
| 0.08835 µM | C[C@@H](NC(=O)[C@H]1CCCN1C(=O)[C@H]1CCCN(S(=O)(=O)N2CC(C#N)C2)C1)c1ccc(Cl)c(F)c1 [Example 69, N-((1R)-1-(4-chloro-3-fluorophenyl)ethyl)-1-(((3S)-1-((3-cyano-1-azetidinyl)sulfonyl)-3-piperidinyl)carbonyl)-D-prolinamide] |
| 0.08855 µM | N#CC1CN(S(=O)(=O)N2CCC[C@H](C(=O)N3CCC[C@@H]3C(=O)NCc3ccc(Cl)cc3F)C2)C1 [Example 70, N-(4-chloro-2-fluorobenzyl)-1-(((3S)-1-((3-cyano-1-azetidinyl)sulfonyl)-3-piperidinyl)carbonyl)-D-prolinamide] |
| 0.08898 µM | C[C@@H](NC(=O)[C@H]1CCCN1C(=O)c1cccc(S(=O)(=O)N2CC(C#N)C2)c1)c1ccc(Cl)cc1 [Example 71, N-((1R)-1-(4-chlorophenyl)ethyl)-1-((3-((3-cyano-1-azetidinyl)sulfonyl)phenyl)carbonyl)-D-prolinamide] |
| 0.09745 µM | C[C@@H](NC(=O)[C@H]1CCCN1C(=O)[C@@H]1CN(S(=O)(=O)N2CC(C#N)C2)CCO1)c1ccc(C(F)(F)F)cc1F [Example 73, 1-(((2S)-4-((3-cyano-1-azetidinyl)sulfonyl)-2-morpholinyl)carbonyl)-N-((1R)-1-(2-fluoro-4-(trifluoromethyl)phenyl)ethyl)-D-prolinamide] |
| 0.09935 µM | CS(=O)(=O)c1cccc(C(=O)N2[C@@H](C(=O)N[C@@H](c3cc(F)c(Cl)cc3F)C3COC3)C[C@H]3C[C@H]32)c1 [Example 74, (1R,3R,5R)-N-((R)-(4-chloro-2,5-difluorophenyl)(3-oxetanyl)methyl)-2-(3-(methylsulfonyl)benzoyl)-2-azabicyclo[3.1.0]hexane-3-carboxamide] |
| 0.1006 µM | CN(Cc1ccc(C(F)(F)F)cc1)C(=O)[C@H]1CCCN1C(=O)c1cccc(S(=O)(=O)N2CC(C#N)C2)c1 [Example 75, 1-((3-((3-cyano-1-azetidinyl)sulfonyl)phenyl)carbonyl)-N-methyl-N-(4-(trifluoromethyl)benzyl)-D-prolinamide] |
| 0.1008 µM | Cc1ccc(CNC(=O)[C@H]2CCCN2C(=O)c2cccc(S(=O)(=O)N3CC(C#N)C3)c2)c(F)c1 [Example 76, 1-((3-((3-cyano-1-azetidinyl)sulfonyl)phenyl)carbonyl)-N-(2-fluoro-4-methylbenzyl)-D-prolinamide] |
| 0.1016 µM | N#CC1CN(S(=O)(=O)N2CC(C(=O)N3CCC[C@@H]3C(=O)NCc3ccc(C(F)(F)F)cc3)CC(F)(F)C2)C1 (stereo partly drawn) [Example 77, 1-((-1-((3-cyano-1-azetidinyl)sulfonyl)-5,5-difluoro-3-piperidinyl)carbonyl)-N-(4-(trifluoromethyl)benzyl)-D-prolinamide] |
| 0.1023 µM | N#CC1CN(S(=O)(=O)N2CCC[C@H](C(=O)N3CCC[C@@H]3C(=O)N[C@H](CO)c3ccc(Cl)c(F)c3)C2)C1 [Example 78, N-((1S)-1-(4-chloro-3-fluorophenyl)-2-hydroxyethyl)-1-(((3S)-1-((3-cyano-1-azetidinyl)sulfonyl)-3-piperidinyl)carbonyl)-D-prolinamide] |
| 0.1085 µM | C[C@@H]1CCN(S(=O)(=O)N2CC(C#N)C2)C[C@H]1C(=O)N1CCC[C@@H]1C(=O)NCc1ccc(C(F)(F)F)cc1 [Example 82, 1-(((3S,4R)-1-((3-cyano-1-azetidinyl)sulfonyl)-4-methyl-3-piperidinyl)carbonyl)-N-(4-(trifluoromethyl)benzyl)-D-prolinamide] |
